Key:
Format in all cases: physicochemical
[1] = Long term stability of amorphous Ubrogepant (HPLC purity, PXRD); details: long term stability at 25 ± 2° C. under 60 ± 5% humidity condition upto 6 months
Procedure: (§1) Eighth aspect of the first embodiment, the accelerated and long-term stability data of amorphous Ubrogepant of formula-1 is outlined in Table-1 as follows: […]
(§2) Ubrogepant and its related substances were analyzed by HPLC with the following chromatographic conditions: Apparatus: A liquid chromatographic system is to be equipped with variable wavelength UV-Detector and integrator; Column: Xbridge C18 150×4.6 mm, 3.5 μm Ghost-Buster column: Ghost buster 50 mm×4.6 mm; Wavelength: 210 nm; Column temperature: 25° C.; Injection volume: 5 μL; Elution: Gradient; Diluent: Acetonitrile: Water; Needle wash: Diluent.
(§3) The PXRD analysis of compound of the present invention was carried out by using BRUKER-Axis/D8 ADVANCE (DAVINCI) X-Ray diffractometer using CuKα radiation of wavelength 1.5406 A°.

[2] = Accelerated stability of amorphous Ubrogepant (HPLC purity, PXRD); details: accelerated stability at 40 ± 2° C. under 75 ± 5% humidity condition upto 6 months
Procedure: as §1, §2, §3

[3] = Polymorphic stress study of amorphous Ubrogepant
Procedure: Ninth aspect of the first embodiment of the present invention, amorphous Ubrogepant is also stable under below Polymorphic stress study conditions:
as §3

SMILES: C[C@@H]1[C@H](c2ccccc2)C[C@H](NC(=O)c2cnc3c(c2)C[C@@]2(C3)C(=O)Nc3ncccc32)C(=O)N1CC(F)(F)F [Amorphous Ubrogepant, (3′S)—N-((3S,5S,6R)-6-methyl-2-oxo-5-phenyl-1-(2,2,2-trifluoroethyl)piperidin-3-yl)-2′-oxo-1′,2′,5,7-tetrahydrospiro [cyclopenta[b]pyridine-6,3′-pyrrolo[2,3-b]pyridine]-3-carboxamide]
- PXRD Result [1]: stable
- Purity by HPLC [1]: >99.75%
- PXRD Result [2]: stable
- Purity by HPLC [2]: >99.75%
- Result (polymorphic stability) ([3]; hygroscopicity analysis (75 ± 5% RH), 24 hours): stable
- Result (polymorphic stability) ([3]; stress study under 10 tons pressure, 3 mins): stable
- Result (polymorphic stability) ([3]; thermal analysis at 60° ± 2° C., 24 hours): stable
- Result (polymorphic stability) ([3]; under UV light at 254 nm, 24 hours): stable

Reference: patent US20250136602A1, “PROCESS FOR THE PREPARATION OF A PURE AMORPHOUS FORM OF UBROGEPANT” (MSN LABORATORIES PRIVATE LIMITED, F&D CENTER, priority 2021, published 2025)
